# Numbers after ± are expanded uncertainties.
# Assay: refractive index (Na D-line) (dimensionless); xn = mol fraction of the nth substance listed
# Details: 103 kPa, Liquid, Standard Abbe refractometry
structure (smiles),measurement,setting,value
C=C[Si](C)(OCC)OCC [methylvinyldiethoxysilane] + CO[Si](C)(OC)c1ccccc1,refractive index,"298.15 K, x2 = 0",1.39751 ± 0.004
same,refractive index,"298.15 K, x2 = 0.05",1.40161 ± 0.004
same,refractive index,"298.15 K, x2 = 0.1001",1.40569 ± 0.004
same,refractive index,"298.15 K, x2 = 0.1499",1.40975 ± 0.004
same,refractive index,"298.15 K, x2 = 0.2001",1.41382 ± 0.004
same,refractive index,"298.15 K, x2 = 0.2501",1.41792 ± 0.004
same,refractive index,"298.15 K, x2 = 0.3",1.42192 ± 0.004
same,refractive index,"298.15 K, x2 = 0.3499",1.42595 ± 0.004
same,refractive index,"298.15 K, x2 = 0.4",1.42999 ± 0.004
same,refractive index,"298.15 K, x2 = 0.4501",1.43404 ± 0.004
same,refractive index,"298.15 K, x2 = 0.5",1.43801 ± 0.004
same,refractive index,"298.15 K, x2 = 0.5499",1.44203 ± 0.004
same,refractive index,"298.15 K, x2 = 0.6",1.44606 ± 0.004
same,refractive index,"298.15 K, x2 = 0.65",1.44994 ± 0.004
same,refractive index,"298.15 K, x2 = 0.6999",1.45398 ± 0.004
same,refractive index,"298.15 K, x2 = 0.75",1.45797 ± 0.004
same,refractive index,"298.15 K, x2 = 0.7999",1.46196 ± 0.004
same,refractive index,"298.15 K, x2 = 0.85",1.46589 ± 0.004
same,refractive index,"298.15 K, x2 = 0.8998",1.46999 ± 0.004
same,refractive index,"298.15 K, x2 = 0.9499",1.47377 ± 0.004
same,refractive index,"303.15 K, x2 = 0",1.39501 ± 0.004
same,refractive index,"303.15 K, x2 = 0.05",1.39911 ± 0.004
same,refractive index,"303.15 K, x2 = 0.1001",1.40322 ± 0.004
same,refractive index,"303.15 K, x2 = 0.1499",1.40729 ± 0.004
same,refractive index,"303.15 K, x2 = 0.2001",1.41135 ± 0.004
same,refractive index,"303.15 K, x2 = 0.2501",1.41547 ± 0.004
same,refractive index,"303.15 K, x2 = 0.3",1.41948 ± 0.004
same,refractive index,"303.15 K, x2 = 0.3499",1.42352 ± 0.004
same,refractive index,"303.15 K, x2 = 0.4",1.42755 ± 0.004
same,refractive index,"303.15 K, x2 = 0.4501",1.43161 ± 0.004
same,refractive index,"303.15 K, x2 = 0.5",1.43558 ± 0.004
same,refractive index,"303.15 K, x2 = 0.5499",1.43961 ± 0.004
same,refractive index,"303.15 K, x2 = 0.6",1.44365 ± 0.004
same,refractive index,"303.15 K, x2 = 0.65",1.44754 ± 0.004
same,refractive index,"303.15 K, x2 = 0.6999",1.45159 ± 0.004
same,refractive index,"303.15 K, x2 = 0.75",1.45558 ± 0.004
same,refractive index,"303.15 K, x2 = 0.7999",1.45958 ± 0.004
same,refractive index,"303.15 K, x2 = 0.85",1.46352 ± 0.004
same,refractive index,"303.15 K, x2 = 0.8998",1.46763 ± 0.004
same,refractive index,"303.15 K, x2 = 0.9499",1.47142 ± 0.004
same,refractive index,"308.15 K, x2 = 0",1.39249 ± 0.004
same,refractive index,"308.15 K, x2 = 0.05",1.3966 ± 0.004
same,refractive index,"308.15 K, x2 = 0.1001",1.40071 ± 0.004
same,refractive index,"308.15 K, x2 = 0.1499",1.40481 ± 0.004
same,refractive index,"308.15 K, x2 = 0.2001",1.40888 ± 0.004
same,refractive index,"308.15 K, x2 = 0.2501",1.413 ± 0.004
same,refractive index,"308.15 K, x2 = 0.3",1.41702 ± 0.004
same,refractive index,"308.15 K, x2 = 0.3499",1.42108 ± 0.004
same,refractive index,"308.15 K, x2 = 0.4",1.42511 ± 0.004
same,refractive index,"308.15 K, x2 = 0.4501",1.42919 ± 0.004
same,refractive index,"308.15 K, x2 = 0.5",1.43316 ± 0.004
same,refractive index,"308.15 K, x2 = 0.5499",1.43721 ± 0.004
same,refractive index,"308.15 K, x2 = 0.6",1.44126 ± 0.004
same,refractive index,"308.15 K, x2 = 0.65",1.44513 ± 0.004
same,refractive index,"308.15 K, x2 = 0.6999",1.44922 ± 0.004
same,refractive index,"308.15 K, x2 = 0.75",1.45323 ± 0.004
same,refractive index,"308.15 K, x2 = 0.7999",1.45722 ± 0.004
same,refractive index,"308.15 K, x2 = 0.85",1.46116 ± 0.004
same,refractive index,"308.15 K, x2 = 0.8998",1.46528 ± 0.004
same,refractive index,"308.15 K, x2 = 0.9499",1.46907 ± 0.004
same,refractive index,"313.15 K, x2 = 0",1.38997 ± 0.004
same,refractive index,"313.15 K, x2 = 0.05",1.39407 ± 0.004
same,refractive index,"313.15 K, x2 = 0.1001",1.39819 ± 0.004
same,refractive index,"313.15 K, x2 = 0.1499",1.4023 ± 0.004
same,refractive index,"313.15 K, x2 = 0.2001",1.40639 ± 0.004
same,refractive index,"313.15 K, x2 = 0.2501",1.41052 ± 0.004
same,refractive index,"313.15 K, x2 = 0.3",1.41456 ± 0.004
same,refractive index,"313.15 K, x2 = 0.3499",1.41864 ± 0.004
same,refractive index,"313.15 K, x2 = 0.4",1.42265 ± 0.004
same,refractive index,"313.15 K, x2 = 0.4501",1.42673 ± 0.004
same,refractive index,"313.15 K, x2 = 0.5",1.43072 ± 0.004
same,refractive index,"313.15 K, x2 = 0.5499",1.43477 ± 0.004
same,refractive index,"313.15 K, x2 = 0.6",1.43884 ± 0.004
same,refractive index,"313.15 K, x2 = 0.65",1.44272 ± 0.004
same,refractive index,"313.15 K, x2 = 0.6999",1.44683 ± 0.004
same,refractive index,"313.15 K, x2 = 0.75",1.45086 ± 0.004
same,refractive index,"313.15 K, x2 = 0.7999",1.45484 ± 0.004
same,refractive index,"313.15 K, x2 = 0.85",1.45878 ± 0.004
same,refractive index,"313.15 K, x2 = 0.8998",1.4629 ± 0.004
same,refractive index,"313.15 K, x2 = 0.9499",1.46672 ± 0.004
same,refractive index,"318.15 K, x2 = 0",1.38742 ± 0.004
same,refractive index,"318.15 K, x2 = 0.05",1.39153 ± 0.004
same,refractive index,"318.15 K, x2 = 0.1001",1.39567 ± 0.004
same,refractive index,"318.15 K, x2 = 0.1499",1.39979 ± 0.004
same,refractive index,"318.15 K, x2 = 0.2001",1.40391 ± 0.004
same,refractive index,"318.15 K, x2 = 0.2501",1.40804 ± 0.004
same,refractive index,"318.15 K, x2 = 0.3",1.41207 ± 0.004
same,refractive index,"318.15 K, x2 = 0.3499",1.41615 ± 0.004
same,refractive index,"318.15 K, x2 = 0.4",1.4202 ± 0.004
same,refractive index,"318.15 K, x2 = 0.4501",1.4243 ± 0.004
same,refractive index,"318.15 K, x2 = 0.5",1.42827 ± 0.004
same,refractive index,"318.15 K, x2 = 0.5499",1.43237 ± 0.004
same,refractive index,"318.15 K, x2 = 0.6",1.43645 ± 0.004
same,refractive index,"318.15 K, x2 = 0.65",1.4403 ± 0.004
same,refractive index,"318.15 K, x2 = 0.6999",1.44442 ± 0.004
same,refractive index,"318.15 K, x2 = 0.75",1.44847 ± 0.004
same,refractive index,"318.15 K, x2 = 0.7999",1.45248 ± 0.004
same,refractive index,"318.15 K, x2 = 0.85",1.45641 ± 0.004
same,refractive index,"318.15 K, x2 = 0.8998",1.46054 ± 0.004
same,refractive index,"318.15 K, x2 = 0.9499",1.46435 ± 0.004
